Experimental data: US20040213889A1, “Method for active dry yeast rehydration and rehydration medium” (priority 2001, published 2004)

How the values were obtained:
Format in all cases: cell-based, Saccharomyces
[1] = system: active dry yeast Uvaferm CEG; assay: Duration of fermentation of deficient synthetic must MS70-fa with different added nutrients (Example 3); settings: average of duplicates, control without addition 290
Description: 12 fermentations were carried out in parallel and in duplicate on a synthetic must MS70-fa such as described in example 1, and corresponding to a medium deficient in assimilable nitrogen (100 mg/l) and containing 200 g/l of fermentable sugars. The active dry yeast used is the commercial yeast Uvaferm CEG™ inoculated at a dosage of 20 g/hl. The yeast extract is the commercial extract Bacto-yeast extract ref. 0127-01-7 (DIFCO, USA). The vitamins and mineral salts are the standard products available from suppliers.
F1 and 2: Controls in which no yeast extract is added either into the rehydration medium of the yeast or into the fermentation medium. The control rehydration medium is the base medium: water with glucose added at 50 g/l.
F3: Fermentation carried out with the yeast CEG™ rehydrated in the presence of yeast extract (used at a dosage permitting a concentration of 30 g/hl in the must) in the rehydration medium.
F4: Fermentation carried out with the yeast CEG™ rehydrated in a control rehydration medium. The same yeast extract as for F3 is added at the start of alcoholic fermentation directly into the synthetic must MS70-fa in a dosage of 30 g/hl.
F6: Fermentation carried out with the yeast CEG™ rehydrated in a control rehydration medium. […]

[2] = system: active dry yeast Uvaferm PM; assay: Industrial fermentation of Airen white wine must in 100 hectolitre vats (Example 7)
Description: (§1) The medium M2 containing the composition C2 has been used to rehydrate the ADYs and culture a fermentation must of a white wine in industrial conditions in a cellar in the region of la Mancha in Spain.
(§2) Assimilable Nitrogen in the must: 225 mg/l (non-Deficient must)
(§3) Fermentations have been carried out in 100 hectolitre vats according to different forms, in order to determine the most favourable conditions. Two types of ADY have been used, on their own or in the presence of other substances jointly added to the musts to encourage fermentation. In particular the influence of diammonium phosphate and a fermentation activator, added to the fermentation medium, has been studied.
(§4) The active dry yeasts Uvaferm™ CEG (Lallemand, Canada) and Uvaferm™ PM (Lallemand, Canada) have been rehydrated with the aid of the medium M2 described in example 6. For each of the two yeasts, 4 tests have been carried out, by adding:
(§5) The fermentation activator used is the activator Fermaid™ (Lallemand, Canada).
(§6) The kinetic profile of these eight fermentations was followed by measuring the density of the must and at the level of the production of a secondary component of fermentation, i.e. acetate. Indeed, acetate is responsible for the volatile acidity of wines which should be minimised in order to obtain good gustative qualities.
(§7) The values presented in table 2 correspond to fermentation times in days for each form.
(§8) The values presented in table 3 correspond to the volatile acidity measured at the end of fermentation by the Duclaux-Gayon method, known to the person skilled in the art.

[3] = system: active dry yeast Uvaferm CEG; assay: as above
Description: as §1, §2, §3, §4, §5, §6, §7, §8

[4] = Airen must, 225 mg/l assimilable nitrogen
[5] = at end of fermentation, Duclaux-Gayon method

Compound | fermentation time, in rehydration medium ([1]; product added in rehydration medium) | fermentation time, at start of fermentation ([1]; product added to must at start of fermentation) | fermentation time [2, 4] | Volatile acidity [2, 5] | fermentation time [3, 4] | Volatile acidity [3, 5]
N.N.O=P(O)(O)O [Di-ammonia phosphate] | 280 h | 285 h |  |  |  | 
N.N.O=P(O)(O)O [Test no. 1] |  |  | 8 days | 0.33 g/L | 10 days | 0.48 g/L
